Molecular target: T1, Aromatase (Homo sapiens, UniProt P11511)
T1 sequence (P11511 whole entry): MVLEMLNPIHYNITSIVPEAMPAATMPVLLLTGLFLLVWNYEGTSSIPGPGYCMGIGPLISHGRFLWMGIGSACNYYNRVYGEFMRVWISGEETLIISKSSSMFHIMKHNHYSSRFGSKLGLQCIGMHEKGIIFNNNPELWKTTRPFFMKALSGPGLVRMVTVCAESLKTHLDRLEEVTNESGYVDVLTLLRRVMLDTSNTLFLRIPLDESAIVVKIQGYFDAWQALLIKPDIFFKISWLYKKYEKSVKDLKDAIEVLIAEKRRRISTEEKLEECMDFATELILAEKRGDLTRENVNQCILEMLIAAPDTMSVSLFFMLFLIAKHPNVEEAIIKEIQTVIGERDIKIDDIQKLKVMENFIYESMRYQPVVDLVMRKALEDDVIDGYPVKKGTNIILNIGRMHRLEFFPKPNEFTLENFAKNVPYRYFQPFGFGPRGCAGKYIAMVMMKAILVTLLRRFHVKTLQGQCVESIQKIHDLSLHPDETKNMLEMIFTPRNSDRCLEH

SMILES | IC50 [nM]
C/C=C1\CC[C@@]2(C)[C@@H](CC[C@@H]3[C@@H]2CC[C@]2(C)C4=NN(c5ccccc5)[C@H](c5ccc(OC)cc5)[C@H]4C[C@@H]32)C1 | 3230
CCOC1=C[C@@H]2[C@H](CC[C@]3(C)C(=O)CC[C@@H]23)[C@@]2(C)CCC(=O)C=C12 | 750
C[C@]12CC[C@@H]3C4CCC(=O)C=C4C(=O)C[C@H]3[C@@H]1CCC2=O (some centres undefined) | 12000
CCO[C@H]1C[C@@H]2[C@H](CC[C@]3(C)C(=O)CC[C@@H]23)[C@@]2(C)CCC(=O)C=C12 | 1400
C[C@]12CC[C@H](O)C[C@@H]1CC[C@@H]1[C@@H]2CC[C@]2(C)C3=NN[C@H](c4ccccc4)[C@H]3C[C@@H]12 | 6900
CCO[C@H]1C[C@@H]2[C@H](CC[C@]3(C)C(=O)CC[C@@H]23)[C@@]2(C)C=CC(=O)C=C12 | 1500
COc1ccc(/C=C2/C[C@H]3[C@@H]4CC[C@H]5C[C@@H](OC(=O)C(F)(F)F)CC[C@]5(C)[C@H]4CC[C@]3(C)C2=O)cc1 | 7000
C[C@]12C=CC(=O)C=C1[C@@H](OCc1ccccc1)C[C@@H]1[C@@H]2CC[C@]2(C)C(=O)CC[C@@H]12 | 1900
CC(=O)N1N=C2[C@H](C[C@H]3[C@@H]4CC[C@H]5C[C@@H](OC(=O)C(F)(F)F)CC[C@]5(C)[C@H]4CC[C@]23C)[C@H]1c1ccccc1 | 6580
CC(=O)O[C@H]1[C@@H](n2ccnc2)C[C@H]2[C@@H]3CC=C4C[C@@H](N5CCCC5)CC[C@]4(C)[C@H]3CC[C@@]21C | 4900
COc1ccc([C@H]2NN=C3[C@@H]2C[C@H]2[C@@H]4CC[C@H]5CC(=O)CC[C@]5(C)[C@H]4CC[C@]32C)cc1 | 4880
CCO[C@@H]1C[C@@H]2[C@H](CC[C@]3(C)C(=O)CC[C@@H]23)[C@@]2(C)C=CC(=O)C=C12 | 560
COc1ccc([C@@H]2[C@H]3C[C@H]4[C@@H]5CC[C@H]6CC(=O)CC[C@]6(C)[C@H]5CC[C@]4(C)C3=NN2C(C)=O)cc1 | 4890
C[C@]12CCC(=O)C[C@@H]1CC[C@@H]1[C@@H]2CC[C@]2(C)C3=NN(c4ccccc4)[C@H](c4ccccc4)[C@H]3C[C@@H]12 | 4270
CCC(=O)O[C@H]1C[C@@H]2[C@H](CC[C@]3(C)C(=O)CC[C@@H]23)[C@@]2(C)CCC(=O)C=C12 | 210
C[C@]12CC[C@H](OC(=O)C(F)(F)F)C[C@@H]1CC[C@@H]1[C@@H]2CC[C@]2(C)C3=NN(c4ccccc4)[C@H](c4ccccc4)[C@H]3C[C@@H]12 | 5680
COc1ccc([C@@H]2[C@H]3C[C@H]4[C@@H]5CC[C@H]6C[C@@H](O)CC[C@]6(C)[C@H]5CC[C@]4(C)C3=NN2C)cc1 | 6120
CC1(C)C[C@@]2(CO)C(=CC1=O)CC[C@@H]1[C@@H]2CC[C@]2(C)C(=O)CC[C@@H]12 | 5110
C[C@]12C=CC(=O)C=C1[C@H](OCc1ccccc1)C[C@@H]1[C@@H]2CC[C@]2(C)C(=O)CC[C@@H]12 | 150
CC(=O)N1N=C2[C@H](C[C@H]3[C@@H]4CCC5=CC(=O)C=C[C@]5(C)[C@H]4CC[C@]23C)[C@H]1c1ccccc1 | 2880

SMILES | IC50 [nM]
CSCSC1=C2CC[C@@H]3C(=CC[C@]4(C)C(=O)CC[C@@H]34)[C@@]2(C)CCC1=O | 1200
CCCCO[C@@H]1C[C@@H]2[C@H](CC[C@]3(C)C(=O)CC[C@@H]23)[C@@]2(C)CCC(=O)C=C12 | 420
C[C@]12C=CC(=O)C=C1CC[C@@H]1[C@@H]2CC[C@]2(C)C(=O)C(Br)C[C@@H]12 (some centres undefined) | 13200
CN1N=C2[C@H](C[C@H]3[C@@H]4CC[C@H]5C[C@@H](O)CC[C@]5(C)[C@H]4CC[C@]23C)[C@H]1c1ccccc1 | 6340
C[C@]12C[C@@H](O)C(=O)C=C1CC[C@@H]1[C@@H]2CC[C@]2(C)C(=O)CC[C@@H]12 | 15300
CCC(=O)N1N=C2[C@H](C[C@H]3[C@@H]4CC[C@H]5C[C@@H](OC(=O)C(F)(F)F)CC[C@]5(C)[C@H]4CC[C@]23C)[C@H]1c1ccc(OC)cc1 | 6610
C[C@]12CCC(=O)C(S)=C1CC[C@@H]1[C@@H]2CC[C@]2(C)C(=O)CC[C@@H]12 | 3500
COc1ccc([C@@H]2[C@H]3C[C@H]4[C@@H]5CC[C@H]6C[C@@H](OC(=O)C(F)(F)F)CC[C@]6(C)[C@H]5CC[C@]4(C)C3=NN2c2ccccc2)cc1 | 5450
C[C@]12C=CC(=O)C=C1CC[C@@H]1[C@@H]2CC[C@]2(C)C3=NN(c4ccccc4)[C@H](c4ccccc4)[C@H]3C[C@@H]12 | 1980
C[C@]12CCC(=O)C=C1[C@H](OCc1ccccc1)C[C@@H]1[C@@H]2CC[C@]2(C)C(=O)CC[C@@H]12 | 84.9
CC(=O)O[C@H]1C[C@@H]2[C@H](CC[C@]3(C)C(=O)CC[C@@H]23)[C@@]2(C)C=CC(=O)C=C12 | 1100
COc1ccc([C@@H]2[C@H]3C[C@H]4[C@@H]5CCC6=CC(=O)C=C[C@]6(C)[C@H]5CC[C@]4(C)C3=NN2C)cc1 | 2110
CCC(=O)O[C@@H]1C[C@@H]2[C@H](CC[C@]3(C)C(=O)CC[C@@H]23)[C@@]2(C)CCC(=O)C=C12 | 2200
C[C@]12CC[C@@H]3C4CCC(=O)C=C4CC[C@H]3[C@@H]1CCC2=O (some centres undefined) | 1200
C[C@]12C=CC(=O)C=C1C=C(CCc1ccccc1)[C@@H]1[C@@H]2CC[C@]2(C)C(=O)CC[C@@H]12 | 172
CCCC(=O)O[C@@H]1C[C@@H]2[C@H](CC[C@]3(C)C(=O)CC[C@@H]23)[C@@]2(C)CCC(=O)C=C12 | 2700
CC1(C)C[C@@]2(C=O)C(=CC1=O)CC[C@@H]1[C@@H]2CC[C@]2(C)C(=O)CC[C@@H]12 | 600
CCCCCC(=O)O[C@H]1C[C@@H]2[C@H](CC[C@]3(C)C(=O)CC[C@@H]23)[C@@]2(C)CCC(=O)C=C12 | 87.9
C[C@]12C=CC(=O)C=C1C[C@@H](CCc1ccc([N+](=O)[O-])cc1)[C@@H]1[C@@H]2CC[C@]2(C)C(=O)CC[C@@H]12 | 14.9
COc1ccc([C@@H]2[C@H]3C[C@H]4[C@@H]5CC[C@H]6CC(=O)CC[C@]6(C)[C@H]5CC[C@]4(C)C3=NN2c2ccccc2)cc1 | 4160

SMILES | IC50 [nM]
CCCCCCCC(=O)O[C@H]1C[C@@H]2[C@H](CC[C@]3(C)C(=O)CC[C@@H]23)[C@@]2(C)CCC(=O)C=C12 | 150
CN1N=C2[C@H](C[C@H]3[C@@H]4CCC5=CC(=O)C=C[C@]5(C)[C@H]4CC[C@]23C)[C@H]1c1ccccc1 | 2450
CCCC(=O)O[C@H]1C[C@@H]2[C@H](CC[C@]3(C)C(=O)CC[C@@H]23)[C@@]2(C)CCC(=O)C=C12 | 200
C[C@]12CCC(=O)C(SCCl)=C1CC[C@@H]1C2=CC[C@]2(C)C(=O)CC[C@@H]12 | 859
C[C@]12C=CC(=O)C=C1C=C(c1ccccc1)[C@@H]1[C@@H]2CC[C@]2(C)C(=O)CC[C@@H]12 | 2220
CN1N=C2[C@H](C[C@H]3[C@@H]4CC[C@H]5C[C@@H](OC(=O)C(F)(F)F)CC[C@]5(C)[C@H]4CC[C@]23C)[C@H]1c1ccccc1 | 5810
CCCO[C@H]1C[C@@H]2[C@H](CC[C@]3(C)C(=O)CC[C@@H]23)[C@@]2(C)CCC(=O)C=C12 | 1300
CCCCC(=O)O[C@H]1C[C@@H]2[C@H](CC[C@]3(C)C(=O)CC[C@@H]23)[C@@]2(C)CCC(=O)C=C12 | 140
C[C@]12C[C@@H](Cl)C(=O)C=C1CC[C@@H]1[C@@H]2CC[C@]2(C)C(=O)CC[C@@H]12 | 1400
C[C@]12CCC(=O)C(S)=C1CC[C@@H]1C2=CC[C@]2(C)C(=O)CC[C@@H]12 | 3800
CCCCCC(=O)O[C@@H]1C[C@@H]2[C@H](CC[C@]3(C)C(=O)CC[C@@H]23)[C@@]2(C)CCC(=O)C=C12 | 530
CO[C@H]1C[C@@H]2[C@H](CC[C@]3(C)C(=O)CC[C@@H]23)[C@@]2(C)C=CC(=O)C=C12 | 440
COc1ccc([C@@H]2[C@H]3C[C@H]4[C@@H]5CCC6=CC(=O)C=C[C@]6(C)[C@H]5CC[C@]4(C)C3=NN2C(C)=O)cc1 | 2650
C/C=C1\CC[C@@]2(C)[C@@H](CC[C@@H]3[C@@H]2CC[C@]2(C)C4=NN(C)[C@H](c5ccccc5)[C@H]4C[C@@H]32)C1 | 3510
C[C@]12C=CC(=O)C=C1[C@H](Oc1ccccc1)C[C@@H]1[C@@H]2CC[C@]2(C)C(=O)CC[C@@H]12 | 16000
C[C@]12CCCC[C@@H]1CC[C@@H]1[C@@H]2CC[C@]2(C)C(=O)CC[C@@H]12 | 2300
CO[C@@H]1C[C@@H]2[C@H](CC[C@]3(C)C(=O)CC[C@@H]23)[C@@]2(C)C=CC(=O)C=C12 | 619
C[C@]12CCC(=O)C[C@@H]1C(=O)C[C@@H]1[C@@H]2CC[C@]2(C)C(=O)CC[C@@H]12 | 4000
CCCCO[C@@H]1C[C@@H]2[C@H](CC[C@]3(C)C(=O)CC[C@@H]23)[C@@]2(C)C=CC(=O)C=C12 | 460

Source: ChEMBL document CHEMBL5241054, “Effective anti-aromatase therapy to battle against estrogen-mediated breast cancer: Comparative SAR/QSAR assessment on steroidal aromatase inhibitors” (Eur J Med Chem, 2020)
